Earlier results as cited in patent publication US10220158B2 (kaleo, Inc., priority 2014, dated 2019).

Settings: jet injector vs conventional syringe

## Cc1ncc2n1-c1ccc(Cl)cc1C(c1ccccc1F)=NC2 [midazolam]
  peak midazolam plasma concentrations produced faster: over 30%
